Source: patent publication US20210045385A1, “PYRIDAZINONE-SUBSTITUTED KETOXIMES AS HERBICIDES” (FMC Corporation, priority 2018, published 2021)

How the values were obtained:
Type in all cases: in vivo
[1] = tested on: foxtail, green (green foxtail, Setaria viridis); test: Test C preemergence, visual plant response rating; settings: 500 g ai/ha
How it was run: (§1)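 Seeds sown in a loam–sand blend got a directed preemergence soil spray; postemergence plants (2–10 cm, one- to two-leaf stage) were sprayed with compound in a non-phytotoxic solvent plus surfactant. Injury was scored visually against untreated controls after about 10 d in a greenhouse on a 0–100 scale (100 = complete control).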

[2] = tested on: ragweed (common ragweed, Ambrosia artemisiifolia); test: Test C preemergence, visual plant response rating; settings: 500 g ai/ha
How it was run: as §1

[3] = tested on: barnyardgrass (Echinochloa crus-galli); test: Test C preemergence, visual plant response rating; settings: 500 g ai/ha
How it was run: as §1

[4] = tested on: Italian ryegrass (Lolium mutiflorum); test: Test C preemergence, visual plant response rating; settings: 500 g ai/ha
How it was run: as §1

[5] = tested on: pigweed (Amaranthus retroflexus); test: Test C preemergence, visual plant response rating; settings: 500 g ai/ha
How it was run: as §1

[6] = tested on: kochia (Bassia scoparia); test: Test C preemergence, visual plant response rating; settings: 500 g ai/ha
How it was run: as §1

[7] = tested on: foxtail, green (green foxtail, Setaria viridis); test: Test C postemergence, visual plant response rating; settings: 500 g ai/ha
How it was run: as §1

[8] = tested on: corn (Zea mays); test: Test C postemergence, visual plant response rating; settings: Test C, postemergence, 500 g ai/ha
How it was run: as §1

[9] = tested on: ragweed (common ragweed, Ambrosia artemisiifolia); test: Test C postemergence, visual plant response rating; settings: Test C, postemergence, 500 g ai/ha
How it was run: as §1

[10] = tested on: blackgrass (Alopecurus myosuroides); test: Test C postemergence, visual plant response rating; settings: Test C, postemergence, 500 g ai/ha
How it was run: as §1

[11] = tested on: barnyardgrass (Echinochloa crus-galli); test: Test C postemergence, visual plant response rating; settings: Test C, postemergence, 500 g ai/ha
How it was run: as §1

[12] = tested on: wheat (Triticum aestivum); test: Test C postemergence, visual plant response rating; settings: Test C, postemergence, 500 g ai/ha
How it was run: as §1

[13] = tested on: Italian ryegrass (Lolium mutiflorum); test: Test C postemergence, visual plant response rating; settings: Test C, postemergence, 500 g ai/ha
How it was run: as §1

[14] = tested on: pigweed (Amaranthus retroflexus); test: Test C postemergence, visual plant response rating; settings: Test C, postemergence, 500 g ai/ha
How it was run: as §1

[15] = tested on: kochia (Bassia scoparia); test: Test C postemergence, visual plant response rating; settings: Test C, postemergence, 500 g ai/ha
How it was run: as §1

Cc1nn(C)c(=O)c(/C(=N/OCc2ccccc2)c2cccc(Cl)c2)c1O [Compound 150]
Foxtail, Green plant response rating (0 to 100 scale) [1]: 0
Ragweed plant response rating (0 to 100 scale) [2]: 80
Barnyardgrass plant response rating (0 to 100 scale) [3]: 0
Ryegrass, Italian plant response rating (0 to 100 scale) [4]: 0
Pigweed plant response rating (0 to 100 scale) [5]: 0
Kochia plant response rating (0 to 100 scale) [6]: 0
Foxtail, Green plant response rating (0 to 100 scale) [7]: 0
Corn plant response rating (0 to 100 scale) [8]: 0
Ragweed plant response rating (0 to 100 scale) [9]: 20
Blackgrass plant response rating (0 to 100 scale) [10]: 0
Barnyardgrass plant response rating (0 to 100 scale) [11]: 0
Wheat plant response rating (0 to 100 scale) [12]: 0
Ryegrass, Italian plant response rating (0 to 100 scale) [13]: 10
Pigweed plant response rating (0 to 100 scale) [14]: 0
Kochia plant response rating (0 to 100 scale) [15]: 0
